Patent publication US10450301B2, “Apoptosis signal-regulating kinase 1 inhibitors and methods of use thereof” (ENANTA PHARMACEUTICALS, INC., priority 2017, dated 2019)

What follows are molecules tested against ASK1 (Homo sapiens (Human), UniProt Q99683) (assay: HTRF KinEASE Assay (TR-FRET, STK3 peptide substrate), inhibition of ASK1). Conditions: 5 nM ASK1 kinase, 1 μM STK3 peptide substrate, 100 μM ATP, 3 hours; compound 0 to 10 μM.
ASK1, sequence (Q99683 whole entry): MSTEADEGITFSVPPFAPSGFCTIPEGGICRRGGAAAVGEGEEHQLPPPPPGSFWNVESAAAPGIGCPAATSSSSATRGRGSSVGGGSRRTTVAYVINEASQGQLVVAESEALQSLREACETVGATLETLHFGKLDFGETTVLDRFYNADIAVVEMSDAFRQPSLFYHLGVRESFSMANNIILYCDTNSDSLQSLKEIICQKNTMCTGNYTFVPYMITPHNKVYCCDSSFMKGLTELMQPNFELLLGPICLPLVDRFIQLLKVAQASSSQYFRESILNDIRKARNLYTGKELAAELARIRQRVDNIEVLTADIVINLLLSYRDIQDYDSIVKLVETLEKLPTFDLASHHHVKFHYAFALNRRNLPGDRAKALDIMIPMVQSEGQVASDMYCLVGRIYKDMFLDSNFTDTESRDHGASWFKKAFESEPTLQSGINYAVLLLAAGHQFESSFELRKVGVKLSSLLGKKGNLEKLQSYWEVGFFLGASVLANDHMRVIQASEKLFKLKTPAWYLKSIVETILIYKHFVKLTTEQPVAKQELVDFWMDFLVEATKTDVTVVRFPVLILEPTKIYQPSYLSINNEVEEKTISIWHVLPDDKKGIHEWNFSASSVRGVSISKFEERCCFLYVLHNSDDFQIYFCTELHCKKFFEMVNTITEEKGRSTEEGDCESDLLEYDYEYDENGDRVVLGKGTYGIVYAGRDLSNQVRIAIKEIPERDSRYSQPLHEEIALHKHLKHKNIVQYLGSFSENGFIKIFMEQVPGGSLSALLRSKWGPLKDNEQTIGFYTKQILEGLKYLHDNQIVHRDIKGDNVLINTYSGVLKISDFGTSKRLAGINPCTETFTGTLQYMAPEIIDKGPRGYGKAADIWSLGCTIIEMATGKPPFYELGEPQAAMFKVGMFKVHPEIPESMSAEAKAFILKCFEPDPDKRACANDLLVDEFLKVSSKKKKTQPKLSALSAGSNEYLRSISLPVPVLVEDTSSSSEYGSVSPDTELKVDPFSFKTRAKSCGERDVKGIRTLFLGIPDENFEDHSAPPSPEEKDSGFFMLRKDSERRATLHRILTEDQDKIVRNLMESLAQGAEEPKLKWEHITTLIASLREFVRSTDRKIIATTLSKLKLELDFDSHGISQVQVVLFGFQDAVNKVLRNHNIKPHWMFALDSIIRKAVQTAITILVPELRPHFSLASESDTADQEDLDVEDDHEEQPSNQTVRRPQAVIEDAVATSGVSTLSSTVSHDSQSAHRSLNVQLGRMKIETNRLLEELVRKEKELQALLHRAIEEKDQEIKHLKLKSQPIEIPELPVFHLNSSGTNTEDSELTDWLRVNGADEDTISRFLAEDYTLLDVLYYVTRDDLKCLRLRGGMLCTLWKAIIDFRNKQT
Format: biochemical
Procedure: Assay HTRF® KinEASE™ Assay
ASK1 was purchased from Thermofisher (Catalogue # PV4011), ATP was purchased from Sigma (Catalogue # A7699), HI-TRF® KinEASE™ Assay System was obtained from Cisbio (Bedford, Mass.). […] HTRF® KinEASE™-STK is a generic method for measuring serine/threonine kinase activities using a time-resolved fluorescence resonance energy transfer (TR-FRET) immunoassay. […] 100 Um ATP is added to start kinase reaction and incubated for 3 hours. The STK3-antibody labeled with Eu^3+-Cryptate and 125 Nm streptavidin-XL665 are mixed in a single addition with stop reagents provided by the Cisbio kit used to stop the kinase reaction. […] The resulting TR-FRET is proportional to the phosphorylation level. Staurosporine was used as the positive control. IC50 was determined by Xlfit 5.3.
By using above method, the inhibition of ASK1 was evaluated for the compounds of Formula (I).
In the case of `CCN1CCc2cc(F)c(C(=O)Nc3cccc(-c4nnnn4C(C)C)n3)cc2C1=O` [Example 98, 2-ethyl-6-fluoro-N-(6-(1-isopropyl-1H-tetrazol-5-yl)pyridin-2-yl)-1-oxo-1,2,3,4-tetrahydroisoquinoline-7-carboxamide], the IC50 is reported as > 1000 nM. For `CC(C)c1nnnn1-c1cccc(NC(=O)c2cc3c(cc2F)CCN(C(=O)N(C)CCC(F)(F)F)C3)n1` [Example 99], the IC50 was 100 to 1000 nM. For `CC(C)c1nnnn1-c1cccc(NC(=O)c2cc3c(cc2F)CCN(S(=O)(=O)CCC(F)(F)F)C3)n1` [Example 100], the IC50 was > 1000 nM. `CCN(C)C(=O)N1CCc2cc(F)c(C(=O)Nc3cccc(-n4nnnc4C(C)C)n3)cc2C1` [Example 101] was tested, and the IC50 was > 1000 nM. For `CC(C)n1nnnc1-c1cccc(NC(=O)c2cc3c(cc2F)CCN(S(=O)(=O)CC2CC(F)(F)C2)C3)n1` [Example 102], the IC50 was 10 to 100 nM. With `CC(C)n1nnnc1-c1cccc(NC(=O)c2cc3c(cc2F)CCN(S(=O)(=O)CC(F)F)C3)n1` [Example 103] the IC50 was 10 to 100 nM. `CC(C)n1nnnc1-c1cccc(NC(=O)c2cc3c(cc2F)CCN(C(=O)N2CCS(=O)(=O)CC2)C3)n1` [Example 104] was tested, and the IC50 was 10 to 100 nM. `CC(C)n1nnnc1-c1cccc(NC(=O)c2cc3c(cc2F)CCN(C(=O)N2CCSCC2)C3)n1` [Example 105] gave an IC50 of 10 to 100 nM. `CC(C)n1nnnc1-c1cccc(NC(=O)c2cc3c(cc2F)CCN(C(=O)N2C[C@@H](C)O[C@@H](C)C2)C3)n1` [Example 106] showed an IC50 of 10 to 100 nM. `CC(C)n1nnnc1-c1cccc(NC(=O)c2cc3c(cc2F)CCN(C(=O)N(C)CCC(F)(F)F)C3)n1` [Example 107] gave an IC50 of 10 to 100 nM. Work on `CC1c2cc(C(=O)Nc3cccc(-c4nnnn4C(C)C)n3)c(F)cc2CCN1CC(=O)N1CCCC1` (stereo not shown) [Example 108, 6-fluoro-N-(6-(1-isopropyl-1H-tetrazol-5-yl)pyridin-2-yl)-1-methyl-2-(2-oxo-2-(pyrrolidin-1-yl)ethyl)-1,2,3,4-tetrahydroisoquinoline-7-carboxamide] yielded an IC50 of 100 to 1000 nM. `CC(=O)OC[C@@H](C)n1nnnc1-c1cccc(NC(=O)c2cc3c(cc2F)CCN(C(=O)OCc2ccccc2)C3)n1` [Example 109] was tested, and the IC50 was > 1000 nM. `CC(C)n1nnnc1-c1cccc(NC(=O)c2cc3c(cn2)CCN(S(=O)(=O)C2CC2)C3)n1` [Example 110, 6-(cyclopropylsulfonyl)-N-(6-(1-isopropyl-1H-tetrazol-5-yl)pyridin-2-yl)-5,6,7,8-tetrahydro-2,6-naphthyridine-3-carboxamide] gave an IC50 of 1 to 10 nM. For `CC(C)n1nnnc1-c1cccc(NC(=O)c2cc3c(cn2)CCN(S(=O)(=O)N(C)C)C3)n1` [Example 111], the IC50 was 10 to 100 nM. With `CC(C)n1nnnc1-c1cccc(NC(=O)c2cc3c(cn2)CCN(C(=O)N(C)C2CCCC2)C3)n1` [Example 112] the IC50 was 10 to 100 nM. `CCN(CC)C(=O)N1CCc2cnc(C(=O)Nc3cccc(-c4nnnn4C(C)C)n3)cc2C1` [Example 113] showed an IC50 of 1 to 10 nM. In the case of `CC(C)n1nnnc1-c1cccc(NC(=O)c2cc3c(cn2)CCN(C(=O)N(C)CCC(F)(F)F)C3)n1` [Example 114], the IC50 is reported as 10 to 100 nM. In the case of `CCN(C)C(=O)N1CCc2cnc(C(=O)Nc3cccc(-c4nnnn4C(C)C)n3)cc2C1` [Example 115], the IC50 is reported as 1 to 10 nM. In the case of `CC(C)n1nnnc1-c1cccc(NC(=O)c2cc3c(cn2)CCN(C(=O)N(C)C)C3)n1` [Example 116], the IC50 is reported as 1 to 10 nM. `CCNC(=O)N1CCc2cnc(C(=O)Nc3cccc(-c4nnnn4C(C)C)n3)cc2C1` [Example 117] was tested, and the IC50 was 1 to 10 nM. With `CCOC(=O)N1CCc2cnc(C(=O)Nc3cccc(-c4nnnn4C(C)C)n3)cc2C1` [Example 118] the IC50 was 1 to 10 nM. `CC(C)n1nnnc1-c1cccc(NC(=O)c2cc3c(cn2)CCN(C(=O)C2CCCC2)C3)n1` [Example 119] gave an IC50 of 1 to 10 nM. `C[C@H](CO)n1nnnc1-c1cccc(NC(=O)c2cc3c(cn2)CCN(S(=O)(=O)c2ccccc2)C3)n1` [Example 120] gave an IC50 of 1 to 10 nM. `C[C@H](CO)n1nnnc1-c1cccc(NC(=O)c2cc3c(cn2)CCN(C(=O)c2ccc(F)cc2)C3)n1` [Example 121] gave an IC50 of 1 to 10 nM. Molecule `COCCC(=O)N1CCc2cnc(C(=O)Nc3cccc(-c4nnnn4[C@H](C)CO)n3)cc2C1` [Example 122] has an IC50 of 1 to 10 nM. In the case of `C[C@H](CO)n1nnnc1-c1cccc(NC(=O)c2cc3c(cn2)CCN(C(=O)CCC(F)(F)F)C3)n1` [Example 123], the IC50 is reported as 1 to 10 nM. Molecule `C[C@H](CO)n1nnnc1-c1cccc(NC(=O)c2cc3c(cn2)CCN(C(=O)C2CCC2)C3)n1` [Example 124] has an IC50 of 1 to 10 nM. In the case of `CCC(=O)N1CCc2cnc(C(=O)Nc3cccc(-c4nnnn4[C@H](C)CO)n3)cc2C1` [Example 125], the IC50 is reported as 1 to 10 nM. In the case of `C[C@H](CO)n1nnnc1-c1cccc(NC(=O)c2cc3c(cn2)CCN(C(=O)OCC(F)(F)F)C3)n1` [Example 126], the IC50 is reported as < 1 nM. In the case of `CC(C)COC(=O)N1CCc2cnc(C(=O)Nc3cccc(-c4nnnn4[C@H](C)CO)n3)cc2C1` [Example 127], the IC50 is reported as 1 to 10 nM. `COC(=O)N1CCc2cnc(C(=O)Nc3cccc(-c4nnnn4[C@H](C)CO)n3)cc2C1` [Example 128] showed an IC50 of 1 to 10 nM. With `C[C@H](CO)n1nnnc1-c1cccc(NC(=O)c2cc3c(cn2)CCN(C(=O)NCc2ccccc2)C3)n1` [Example 129] the IC50 was 1 to 10 nM. Molecule `COCCNC(=O)N1CCc2cnc(C(=O)Nc3cccc(-c4nnnn4[C@H](C)CO)n3)cc2C1` [Example 130] has an IC50 of 1 to 10 nM. `C[C@H](CO)n1nnnc1-c1cccc(NC(=O)c2cc3c(cn2)CCN(C(=O)NC2CC2)C3)n1` [Example 131] was tested, and the IC50 was 1 to 10 nM. For `CC(C)NC(=O)N1CCc2cnc(C(=O)Nc3cccc(-c4nnnn4[C@H](C)CO)n3)cc2C1` [Example 132], the IC50 was 1 to 10 nM. `C[C@H](CO)n1nnnc1-c1cccc(NC(=O)c2cc3c(cn2)CCN(Cc2ccccc2)C3)n1` [Example 133] showed an IC50 of 1 to 10 nM. For `COCCN1CCc2cnc(C(=O)Nc3cccc(-c4nnnn4[C@H](C)CO)n3)cc2C1` [Example 134], the IC50 was 1 to 10 nM. `CC(C)N1CCc2cnc(C(=O)Nc3cccc(-c4nnnn4[C@H](C)CO)n3)cc2C1` [Example 135] was tested, and the IC50 was 10 to 100 nM. `CCN1CCc2cnc(C(=O)Nc3cccc(-c4nnnn4[C@H](C)CO)n3)cc2C1` [Example 136] was tested, and the IC50 was 10 to 100 nM. `CC(C)n1nnnc1-c1cccc(NC(=O)c2cc3c(cn2)CCN(C(=O)N2CCS(=O)(=O)CC2)C3)n1` [Example 137] showed an IC50 of 1 to 10 nM. `COCCS(=O)(=O)N1CCc2cnc(C(=O)Nc3cccc(-c4nnnn4C(C)C)n3)cc2C1` [Example 138] gave an IC50 of 1 to 10 nM. For `CC(C)n1nnnc1-c1cccc(NC(=O)c2cc3c(cn2)CCN(S(=O)(=O)CC2CC(F)(F)C2)C3)n1` [Example 139], the IC50 was 1 to 10 nM. Molecule `CC(C)n1nnnc1-c1cccc(NC(=O)c2cc3c(cn2)CCN(S(=O)(=O)CC(F)(F)F)C3)n1` [Example 140] has an IC50 of 10 to 100 nM. Molecule `CC(C)CS(=O)(=O)N1CCc2cnc(C(=O)Nc3cccc(-c4nnnn4C(C)C)n3)cc2C1` [Example 141] has an IC50 of 1 to 10 nM. For `C[C@H](CO)n1nnnc1-c1cccc(NC(=O)c2cc3c(cn2)CCN(C=O)C3)n1` [Example 142, (R)-6-formyl-N-(6-(1-(1-hydroxypropan-2-yl)-1H-tetrazol-5-yl)pyridin-2-yl)-5,6,7,8-tetrahydro-2,6-naphthyridine-3-carboxamide], the IC50 was 1 to 10 nM. `C[C@H](CO)n1nnnc1-c1cccc(NC(=O)c2cc3c(cn2)CCN(C(=O)OC(C)(C)C)C3)n1` [Example 143, tert-butyl (R)-7-((6-(1-(1-hydroxypropan-2-yl)-1H-tetrazol-5-yl)pyridin-2-yl)carbamoyl)-3,4-dihydro-2,6-naphthyridine-2(1H)-carboxylate] gave an IC50 of 1 to 10 nM. Work on `C[C@H](CO)n1nnnc1-c1cccc(NC(=O)c2cc3c(cn2)CCN(C(=O)N2CCCC2)C3)n1` [Example 144, (R)—N-(6-(1-(1-hydroxypropan-2-yl)-1H-tetrazol-5-yl)pyridin-2-yl)-6-(pyrrolidine-1-carbonyl)-5,6,7,8-tetrahydro-2,6-naphthyridine-3-carboxamide] yielded an IC50 of 1 to 10 nM. `CCOC(=O)N1CCc2cnc(C(=O)Nc3cccc(-c4nnnn4[C@H](C)CO)n3)cc2C1` [Example 145] was tested, and the IC50 was 1 to 10 nM. In the case of `C[C@H](CO)n1nnnc1-c1cccc(NC(=O)c2cc3c(cn2)CCN(C(=O)C2CCCC2)C3)n1` [Example 146, (R)-6-(cyclopentanecarbonyl)-N-(6-(1-(1-hydroxypropan-2-yl)-1H-tetrazol-5-yl)pyridin-2-yl)-5,6,7,8-tetrahydro-2,6-naphthyridine-3-carboxamide], the IC50 is reported as 1 to 10 nM. Molecule `CC(=O)OC[C@@H](C)n1nnnc1-c1cccc(NC(=O)c2cc3c(cn2)CCN(C(=O)OC(C)(C)C)C3)n1` [Example 147, tert-butyl (R)-7-((6-(1-(1-acetoxypropan-2-yl)-1H-tetrazol-5-yl)pyridin-2-yl)carbamoyl)-3,4-dihydro-2,6-naphthyridine-2(1H)-carboxylate] has an IC50 of 100 to 1000 nM. In the case of `C[C@H](CO)n1nnnc1-c1cccc(NC(=O)c2cc3c(cn2)CCN(S(=O)(=O)C2CC2)C3)n1` [Example 148], the IC50 is reported as 1 to 10 nM. Molecule `CC(C)S(=O)(=O)N1CCc2cnc(C(=O)Nc3cccc(-c4nnnn4[C@H](C)CO)n3)cc2C1` [Example 149] has an IC50 of 1 to 10 nM. `C[C@H](CO)n1nnnc1-c1cccc(NC(=O)c2cc3c(cn2)CCN(S(=O)(=O)CCC(F)(F)F)C3)n1` [Example 150] showed an IC50 of 1 to 10 nM. `CC(C)CC(=O)N1CCc2cnc(C(=O)Nc3cccc(-c4nnnn4[C@H](C)CO)n3)cc2C1` [Example 151] was tested, and the IC50 was 1 to 10 nM. `C[C@H](CO)n1nnnc1-c1cccc(NC(=O)c2cc3c(cn2)CCN(C(=O)C(C)(C)C)C3)n1` [Example 152] gave an IC50 of 1 to 10 nM.
